Measurements reported in paper PMC4139342, “Pharmacokinetics-Pharmacodynamics Analysis of Bicyclic 4-Nitroimidazole Analogs in a Murine Model of Tuberculosis” (PLoS ONE, 2014).
Converted amounts (≈) assume the structure as drawn. Read-outs that look alike come from different tables or passages of the source.

Experiments:
physchem [1] = assay: physchem
in vivo [2] = details: female, CD-1, mouse, iv; for clearance: i.v. CL
[3] = Cytotoxicity against THP1 macrophage cell lines; format: cell-based; details: human
Mtb H37Rv = assay: In vivo mouse efficacy, established murine TB model; design: species or system Balb/c mice; details: for Mean log lung CFU ± SEM / log reduction at 25 mg/kg / log reduction at 100 mg/kg: 5 animals; for Efficacy compared with PA-824, in words: significance at P<0.05; for Dose dependence of efficacy, in words: 25 versus 100 mg/kg oral daily for 4 weeks; for log reduction at 25 mg/kg / log reduction at 100 mg/kg: Mycobacterium tuberculosis, H37RV, po, 672 h, read-out: Mean log lung CFU reduction ± SEM compared to untreated controls
Protocol: In vivo mouse efficacy studies were determined after intranasal infection of Balb/c mice with 10^3 cfu Mtb H37Rv. Treatment was initiated 4 weeks after infection. Compounds were orally administered in CM-2 formulation for 4 weeks daily. Bacterial loads were determined at 2 and 4 weeks post treatment. Statistical analysis was done by a one-way analysis of variance, followed by a multiple comparison analysis of variance by a one-way Tukey test (GraphPad Prism, version 5.02, San Diago, California USA, www.graphpad.com). Differences were considered statistically significant at the 95% level of confidence.

[4] = In vivo plasma PK after intravenous dosing; details: mice; for half-life: female, CD-1, mouse, plasma, iv, T1/2 (i.v)
[5] = In vivo plasma PK after oral dosing in CM-2 formulation; details: female, CD-1, mouse, plasma, po
in vivo [6] = details: female, CD-1, mouse, po
[7] = In vivo lung PK after oral dosing; details: female, CD-1, mouse
in vitro [8] = details: mouse, plasma
in vivo [9] = details: female, CD-1, mouse, po; remark: listed apart in the source
[10] = test system: M. tuberculosis (Mtb) (H37Rv, ATCC 27294); assay: microbe, parasite or virus in culture; format: cell-based; details: Mycobacterium tuberculosis
physchem [11] = details: pH 6.8, aqueous buffer, thermodynamic from solid
in vitro [12] = details: human, Caco-2
[13] = female, CD-1, mouse, in vivo, po
[14] = female, CD-1, mouse, in vivo, po, 25 mg/kg
[15] = lungs; cited from earlier work
[16] = 25 mg/kg oral daily for 4 weeks
[17] = 100 mg/kg oral daily for 4 weeks
[18] = 10 mg/kg, i.v. dosing at 10 mg/kg
[19] = 10 mg/kg, Lung to Plasma ratio AUC24
[20] = 10 mg/kg, Lung to Plasma ratio Cmax
[21] = 5 mg/kg, i.v. dosing at 5 mg/kg
[22] = 25 mg/kg, Lung to Plasma ratio AUC24
[23] = 25 mg/kg, Lung to Plasma ratio Cmax

Structure (SMILES) | logP (physchem [1]) | Vd (in vivo [2]; 10 mg/kg) | clearance (in vivo [2]; 10 mg/kg) | CC50 [3] | Mean log lung CFU ± SEM (Mtb H37Rv; [16]) | Efficacy compared with PA-824, in words (Mtb H37Rv; [16]) | Mean log lung CFU ± SEM (Mtb H37Rv; [17]) | Efficacy compared with PA-824, in words (Mtb H37Rv; [17]) | Dose dependence of efficacy, in words (Mtb H37Rv) | log reduction at 25 mg/kg (Mtb H37Rv; [16]) | log reduction at 100 mg/kg (Mtb H37Rv; [17]) | half-life [4, 18] | PAMPA %FA | PAMPA Log Pe | fraction unbound (in vitro [8]) | MIC99 [10] | solubility (physchem [11]) | Papp A→B (in vitro [12]) | Papp B→A (in vitro [12]) | efflux ratio (in vitro [12]) | other results
O=C(CO[C@@H]1COc2nc([N+](=O)[O-])cn2C1)N1CCN(c2ccc(OC(F)(F)F)cc2)CC1 [NI-622] | 2.9 | 1.8 L/kg | 14.7 mL/min/kg | > 10 µg/mL | 5.77±0.08 log CFU | significantly (P<0.05) less efficacious than PA-824 | 5.85±0.11 log CFU | significantly (P<0.05) less efficacious than PA-824 | no dose-dependent increase in bactericidal activity | 0.48 to 0.89 | 0.81 ± 0.11 | 1.8 h | 31% | –5.3 cm/sec | 0.03 | 0.18 µg/mL (≈ 0.382 µM) | 28.2 µg/mL (≈ 59.8 µM) | 9.5 ×10⁻⁶ cm/s | 12.4 ×10⁻⁶ cm/s | 1.3 | half-life ([5]; 50 mg/kg): 2.1 h; AUC (in vivo [6]; 50 mg/kg): 108000 ng·h/mL; Cmax (in vivo [6]; 50 mg/kg): 14800 ng/mL; bioavailability (in vivo [6]; 50 mg/kg): 100%; half-life ([7]; 50 mg/kg): 1.8 h; Kp (in vivo [9]; 50 mg/kg, Lung to Plasma ratio AUC24): 0.7; Kp (in vivo [9]; 50 mg/kg, Lung to Plasma ratio Cmax): 0.7; Lung AUC24 ([13]; 50 mg/kg): 71.1 µg·h/g; Lung Cmax ([13]; 50 mg/kg): 10.2 µg/g
O=[N+]([O-])c1cn2c(n1)OC[C@@H](NCCc1ccc(OC(F)(F)F)cc1)C2 [AminoEthyl-824] | 3.6 | 2 L/kg | 44 mL/min/kg | > 10 µg/mL | – | – | 4.53±0.07 log CFU | comparable efficacy to PA-824 | – | – | 1.69 ± 0.07 | < 1 h | 85% | –4.6 cm/sec | 0.55 | 0.06 µg/mL (≈ 0.161 µM) | 104 µg/mL (≈ 279 µM) | 18.6 ×10⁻⁶ cm/s | 20.7 ×10⁻⁶ cm/s | 1.1 | T1/2 (i.v) ([4]; i.v. dosing at 10 mg/kg, 10 mg/kg): 0.7 h; half-life ([5]; 10 mg/kg): 1.7 h; AUC (in vivo [6]; 10 mg/kg): 2900 ng·h/mL; Cmax (in vivo [6]; 10 mg/kg): 1000 ng/mL; bioavailability (in vivo [6]; 10 mg/kg): 76%; half-life ([7]; 10 mg/kg): 1.2 h; Kp (in vivo [9]; [19]): 1.8; Kp (in vivo [9]; [20]): 1.6; Lung AUC24 ([13]; 10 mg/kg): 5.2 µg·h/g; Lung Cmax ([13]; 10 mg/kg): 1.6 µg/g
CC[C@H]1Oc2nc([N+](=O)[O-])cn2C[C@@H]1NCc1ccc(OC(F)(F)F)cc1 [NI-182] | 3.05 | – | – | > 10 µg/mL | 4.84±0.14 log CFU | comparable efficacy to PA-824 | 4.81±0.18 log CFU | significantly (P<0.05) less efficacious than PA-824 | no dose-dependent increase in bactericidal activity | 1.23 to 1.56 | 1.26 ± 0.18 | – | 99% | –3.8 cm/sec | 0.087 | 0.02 µg/mL (≈ 0.0518 µM) | 32 µg/mL (≈ 82.8 µM) | 18.3 ×10⁻⁶ cm/s | 13.9 ×10⁻⁶ cm/s | 0.8 | Vd (in vivo [2]; 5 mg/kg): 3 L/kg; clearance (in vivo [2]; 5 mg/kg): 15.2 mL/min/kg; Plasma free fCmax [14]: 0.3 µg/mL; half-life [4, 21]: 2.8 h; half-life ([5]; 25 mg/kg): 2 h; AUC (in vivo [6]; 25 mg/kg): 22500 ng·h/mL; Cmax (in vivo [6]; 25 mg/kg): 3500 ng/mL; Tmax (in vivo [6]; 25 mg/kg): 0.5 h; bioavailability (in vivo [6]; 25 mg/kg): 82%; half-life ([7]; 25 mg/kg): 1.9 h; Tmax (in vivo [9]; 25 mg/kg): 0.5 h; Kp (in vivo [9]; [22]): 3.3; Kp (in vivo [9]; [23]): 3.3; Lung AUC24 ([13]; 25 mg/kg): 73.2 µg·h/g; Lung Cmax ([13]; 25 mg/kg): 11.4 µg/g
COc1nc2ccc(Br)cc2cc1[C@@H](c1ccccc1)[C@@](O)(CCN(C)C)c1cccc2ccccc12 [TMC207] | – | – | – | – | – | – | – | – | – | – | – | – | – | – | – | – | – | – | – | – | AUC L/P ratio [15]: 22
CC[C@H]1Oc2nc([N+](=O)[O-])cn2C[C@@H]1NCc1ccc(-c2ccc(OC(F)(F)F)cc2)cc1 [NI-297] | 6 | – | – | > 10 µg/mL | 4.51±0.11 log CFU | comparable efficacy to PA-824 | – | – | – | 1.23 to 1.56 | – | – | 97% | –4.1 cm/sec | 0.018 | 0.02 µg/mL (≈ 0.0432 µM) | < 2 µg/mL | – | – | – | Vd (in vivo [2]; 5 mg/kg): 2.6 L/kg; clearance (in vivo [2]; 5 mg/kg): 5 mL/min/kg; Plasma free fCmax [14]: 0.1 µg/mL; half-life [4, 21]: 6.7 h; half-life ([5]; 25 mg/kg): 4.9 h; AUC (in vivo [6]; 25 mg/kg): 99100 ng·h/mL; Cmax (in vivo [6]; 25 mg/kg): 6000 ng/mL; Tmax (in vivo [6]; 25 mg/kg): 8 h; bioavailability (in vivo [6]; 25 mg/kg): 100%; half-life ([7]; 25 mg/kg): 4.6 h; Tmax (in vivo [9]; 25 mg/kg): 8 h; Kp (in vivo [9]; [22]): 2.4; Kp (in vivo [9]; [23]): 2.7; Lung AUC24 ([13]; 25 mg/kg): 233.4 µg·h/g; Lung Cmax ([13]; 25 mg/kg): 16.3 µg/g
O=[N+]([O-])c1cn2c(n1)OC[C@@H](NCc1ccc(OC(F)(F)F)cc1)C2 [Amino-824, ((s)-2-nitro-6,7-dihydro-5H-imidazo[2,1-b][1,3]oxazin-6-yl)-(4-trifluoromethoxybenzyl)amine] | 2.5 | 2.3 L/kg | 20.5 mL/min/kg | > 10 µg/mL | – | – | 5.14±0.08 log CFU | significantly (P<0.05) less efficacious than PA-824 | – | – | 1.08 ± 0.08 | 2 h | 91% | –4.8 cm/sec | 0.2 | 0.14 µg/mL (≈ 0.391 µM) | 127 µg/mL (≈ 354 µM) | 35.4 ×10⁻⁶ cm/s | 21 ×10⁻⁶ cm/s | 0.6 | half-life ([5]; 10 mg/kg): 2 h; AUC (in vivo [6]; 10 mg/kg): 6000 ng·h/mL; Cmax (in vivo [6]; 10 mg/kg): 1700 ng/mL; bioavailability (in vivo [6]; 10 mg/kg): 74%; half-life ([7]; 10 mg/kg): 1.3 h; Kp (in vivo [9]; [19]): 0.8; Kp (in vivo [9]; [20]): 0.8; Lung AUC24 ([13]; 10 mg/kg): 4.5 µg·h/g; Lung Cmax ([13]; 10 mg/kg): 1.4 µg/g
